# Assays:
# advanced solid tumors = assay: Antitumor activity, investigator assessment by RECIST v1.1; assay type: in vivo, human
# Description: All patients were to have computed tomography or magnetic resonance imaging scans at baseline, every 2 cycles during treatment, and at the time of treatment discontinuation. Local investigator assessment of treatment response was performed using RECIST v1.1 [43].
# [1] = system: heavily pretreated solid tumors; set-up: method as in PMID 23659969; details: cited from earlier work
# [2] = 1 patient with pineoblastoma, 22 mg/m^2
smiles,measurement,setting,value
CO[C@H]1C[C@@H]2CC[C@@H](C)[C@@](O)(O2)C(=O)C(=O)N2CCCC[C@H]2C(=O)O[C@H]([C@H](C)C[C@@H]2CC[C@@H](OP(C)(C)=O)[C@H](OC)C2)CC(=O)[C@H](C)/C=C(\C)[C@@H](O)[C@@H](OC)C(=O)[C@H](C)C[C@H](C)/C=C/C=C/C=C/1C [ridaforolimus],Patients discontinued due to progressive disease,"advanced solid tumors; 33 mg/m^2 (n = 13), 77%",10 patients
same,Progression-free survival,advanced solid tumors; 1 patient with diffuse intrinsic pontine glioma,> 42 months
same,Duration of stable disease,"advanced solid tumors; 1 patient with diffuse intrinsic pontine glioma, 33 mg/m^2, as of January 2016",46 cycles
same,Duration of stable disease,advanced solid tumors; [2],12 cycles
same,Progression-free survival,advanced solid tumors; [2],12.8 months
same,Partial or complete response,"advanced solid tumors; all patients, N = 20",None of the patients had a partial or complete response
same,Patients with evidence of clinical benefit,advanced solid tumors; of the 20 treated pediatric patients (10%),2 patients
same,Stable disease in patients with central nervous system tumors,[1]; intravenous 8-16 mg/m^2,4 of 6
same,Stable disease in patients with sarcomas,[1]; intravenous 8-16 mg/m^2,2 of 8
same,Patients with stable disease / clinical benefit,"[1]; intravenous 8-16 mg/m^2 daily for 5 consecutive days every other week, of 15 evaluable (40%)",6 patients
same,DLTs,[1]; intravenous 8–16 mg/m^2 daily for 5 consecutive days every other week,no DLTs were observed

# — PMC5356695, “A phase 1 study of oral ridaforolimus in pediatric patients with advanced solid tumors” (Oncotarget, 2016)
